Values of other authors, collected in US12037346B2, “Amino-substituted heteroaryls for treating cancers with EGFR mutations” (Nuvalent, Inc., priority 2021, dated 2024).

Target: HER2 (Homo sapiens, UniProt P04626)
Settings: cited from earlier work

HER2, sequence (P04626 23-1255): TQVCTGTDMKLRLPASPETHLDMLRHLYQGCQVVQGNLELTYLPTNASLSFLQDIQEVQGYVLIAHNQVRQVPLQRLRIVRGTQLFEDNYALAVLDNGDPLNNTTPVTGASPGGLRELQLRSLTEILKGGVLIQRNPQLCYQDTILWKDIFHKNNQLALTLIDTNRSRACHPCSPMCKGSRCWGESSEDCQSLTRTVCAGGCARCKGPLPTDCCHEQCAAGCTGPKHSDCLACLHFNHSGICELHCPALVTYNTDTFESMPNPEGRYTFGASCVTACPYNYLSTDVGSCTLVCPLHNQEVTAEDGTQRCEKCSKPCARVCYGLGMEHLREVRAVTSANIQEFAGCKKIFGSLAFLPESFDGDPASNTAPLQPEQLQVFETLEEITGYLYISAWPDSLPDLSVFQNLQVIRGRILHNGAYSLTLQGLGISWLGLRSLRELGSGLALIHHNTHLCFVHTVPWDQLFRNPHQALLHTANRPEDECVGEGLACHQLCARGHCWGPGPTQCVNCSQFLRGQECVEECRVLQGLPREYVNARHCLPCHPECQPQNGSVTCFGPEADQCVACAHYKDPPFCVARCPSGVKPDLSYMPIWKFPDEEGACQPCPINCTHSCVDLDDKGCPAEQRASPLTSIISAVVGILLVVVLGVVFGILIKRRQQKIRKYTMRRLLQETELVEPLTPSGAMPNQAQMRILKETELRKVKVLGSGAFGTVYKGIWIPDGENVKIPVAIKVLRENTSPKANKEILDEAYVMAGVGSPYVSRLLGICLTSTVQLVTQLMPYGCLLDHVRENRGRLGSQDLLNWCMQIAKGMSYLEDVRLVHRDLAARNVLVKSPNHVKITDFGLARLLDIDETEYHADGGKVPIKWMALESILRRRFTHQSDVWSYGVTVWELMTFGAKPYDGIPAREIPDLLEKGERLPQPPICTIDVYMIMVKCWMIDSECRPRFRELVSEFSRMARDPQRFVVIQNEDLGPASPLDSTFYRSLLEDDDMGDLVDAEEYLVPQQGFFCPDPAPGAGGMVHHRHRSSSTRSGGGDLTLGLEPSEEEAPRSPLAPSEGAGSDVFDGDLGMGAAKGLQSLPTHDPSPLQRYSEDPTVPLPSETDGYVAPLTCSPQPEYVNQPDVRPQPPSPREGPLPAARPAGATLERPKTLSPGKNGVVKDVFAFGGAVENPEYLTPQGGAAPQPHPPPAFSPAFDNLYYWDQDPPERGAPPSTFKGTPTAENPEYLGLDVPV

## Cc1cc(Nc2ncnc3ccc(NC4=NC(C)(C)CO4)cc23)ccc1Oc1ccn2ncnc2c1 [Tucatinib]
Compared to placebo (5.6 months)
  median progression free survival: 7.8 months
Compared to placebo (17.4 months)
  median overall survival: 21.9 months
Compared to placebo (23%)
  objective response rate: 41%
